Target: calf intestinal alkaline phosphatase (cIAP) (Bos taurus, UniProt P19111)
Test: spectrophotometric p-NPP hydrolysis assay at […] nm, commercial cIAP
Assay type: biochemical

calf intestinal alkaline phosphatase (cIAP), sequence (P19111 20-506): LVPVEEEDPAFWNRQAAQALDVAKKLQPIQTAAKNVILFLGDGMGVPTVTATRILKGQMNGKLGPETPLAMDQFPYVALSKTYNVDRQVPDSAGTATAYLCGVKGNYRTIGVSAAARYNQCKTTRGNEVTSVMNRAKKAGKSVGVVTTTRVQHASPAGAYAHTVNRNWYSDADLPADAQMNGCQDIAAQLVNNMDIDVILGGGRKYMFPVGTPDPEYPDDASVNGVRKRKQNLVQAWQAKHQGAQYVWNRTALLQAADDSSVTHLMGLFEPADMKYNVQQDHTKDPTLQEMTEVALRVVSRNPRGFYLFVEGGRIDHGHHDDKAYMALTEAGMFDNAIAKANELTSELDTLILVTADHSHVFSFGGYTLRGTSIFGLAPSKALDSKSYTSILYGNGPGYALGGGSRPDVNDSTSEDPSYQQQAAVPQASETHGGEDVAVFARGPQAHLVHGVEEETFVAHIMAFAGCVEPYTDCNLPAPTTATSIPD

`CCNC(=S)NC(=O)c1cccc2ccccc12` [NA-MT, N-(ethylcarbamothioyl)-1-naphthamide] gave an IC50 of 9.875 ± 0.05 µM.
